In PMC10630959, “Dissimilar Effect of P-Glycoprotein and Breast Cancer Resistance Protein Inhibition on the Distribution of Erlotinib to the Retina and Brain in Humans and Mice” (Molecular Pharmaceutics, 2023):
“Also recorded” adds a separate entry of the source. Where two headings read alike, the source gives them in different places.

What was measured:
[1] = test system: OCTs, OCTNs and OATPs at the mouse BRB; experiment: [^3H]erlotinib in situ carotid perfusion, retina transport with SLC transporter inhibitors; assay type: in vivo; details: 100 μM fexofenadine, 5 mM TEA, 100 μM estrone-3-sulfate, 0.5 mM ergothioneine, 5 mM L-carnitine
Procedure: (§1) Transport of [^3H]erlotinib at the luminal BRB and BBB was measured by in situ carotid perfusion.[11],[25] With this method, the vascular composition of the brain and the eye is completely substituted by an artificial fluid, whose constitution can be modified. The perfusion fluid for the in situ carotid perfusion consisted of Krebs carbonate-buffered physiological saline with 128 mM NaCl, 24 mM NaHCO3, 4.2 mM KCl, 2.4 mM NaH2PO4, 1.5 mM CaCl2, 0.9 mM MgSO4, and 9 mM D-glucose, warmed to 37 °C and gassed with 95% O2/5% CO2 to adjust the pH to 7.40. The pH of the perfusion fluid was checked and adjusted with a digital pH meter (±0.05 pH units) immediately before perfusion. Tissue accumulation of [^3H]erlotinib was measured under trans-influx zero to determine the kinetic conditions required to measure transport solely across the membrane, separating the sucrose (vascular) from the nonsucrose (tissue parenchyma) space. […] The first membrane (luminal/vascular) delimiting the sucrose space is the only kinetic interface that affects the distribution parameters of [^3H]erlotinib.
(§2) Mice were anesthetized with ketamine and xylazine (140 and 8 mg/kg, intraperitoneal), and a catheter was inserted into the right carotid artery after ligation of the appropriate vessels. Just before perfusion, the heart was cut. Perfusion started immediately at a constant flow rate of 2.5 mL/min. […] Perfusion was terminated by decapitating the mouse after 60 s. The right eye (without the optic nerve) and the right cerebral hemisphere were removed from the skull and dissected on a freezer pack. The tissues and aliquots of perfusion fluid were weighted, digested (Solvable; PerkinElmer), and mixed with Ultima-gold XR (PerkinElmer). Dual-label counting was carried out in a Tri-Carb 2810TR instrument (PerkinElmer) to measure radioactivity (disintegrations per minute, dpm). […] Therefore, radioactivity in the whole eye was assumed to represent only the posterior segment of the eye, which comprises the retina.
(§3) Calculations were performed as described previously.[11],[25] The initial transport rate, also called brain-eye clearance, expressed as Kin (μL/s/g) was selected as the main outcome parameter. The brain and eye tissue “vascular” volume (Vv; μL/g) was estimated by using the [^14C]sucrose distribution volume. The data for any mouse for which Vv was different from the normal values[25] were excluded from the analysis.

[2] = test system: OCTs, OCTNs and OATPs at the mouse BBB; experiment: [^3H]erlotinib in situ carotid perfusion, brain transport with SLC transporter inhibitors; assay type: in vivo; details: 100 μM fexofenadine, 5 mM TEA, 100 μM estrone-3-sulfate, 0.5 mM ergothioneine, 5 mM L-carnitine
Procedure: as §1, §2, §3

[3] = test system: P-gp and BCRP at the human BRB and BBB; set-up: method as in PMID 34220523; details: cited from earlier work
[4] = test system: P-gp and BCRP at the mouse BBB
[5] = test system: P-gp and BCRP at the mouse BRB
[6] = test system: healthy volunteers; set-up: method as in PMID 30237210; details: oral 1000 mg dose group; precluded inclusion of additional subjects; cited from earlier work
[7] = set-up: method as in PMID 26940368, PMID 30237210; details: under the PET inhibition protocols; cited from earlier work
[8] = test system: P-gp and BCRP at the human blood–retina barrier (BRB); experiment: [^11C]erlotinib PET, distribution to the human retina, baseline vs P-gp and/or BCRP inhibition; assay type: in vivo
Procedure: (§4) Medication-free male (n = 20) and female (n = 2) subjects, who were judged to be healthy based on the screening examinations (past medical history, physical examination, blood and urine tests), were enrolled into the study and allocated to the tariquidar (n = 5) or erlotinib group (n = 17).
(§5) The second scan was performed on the same day for the tariquidar group or on a separate day for the erlotinib group. […] The total administered dose of tariquidar was of 5.6 ± 0.6 mg/kg body weight. For the erlotinib group (n = 17), the second PET scan was acquired approximately 3 h after oral intake of 300 mg (n = 7), 650 mg (n = 8), or 1000 mg (n = 2) of erlotinib (Tarceva; Roche Pharma, 50 and 150 mg tablets).[22] […] In addition to the PET scans, magnetic resonance imaging (MRI) of the head (T1-weighted; Magnetom Skyra 3.0-T MRI, Siemens Medical Solutions) was performed on all participants.
(§6) As described previously,[22] serial arterial blood samples were collected during the two PET imaging sessions in both groups. Venous blood samples were collected at baseline and hourly for 8 h and at approximately 21 h after oral erlotinib intake for determination of erlotinib plasma concentrations. A gamma counter, which was cross-calibrated with the PET camera, was used to determine the radioactivity concentrations in blood and plasma aliquots.
(§7) Volume of interest (VOI) analysis was conducted for the retina on MR-to-PET coregistered images using PMOD software (version 3.6; PMOD Technologies Ltd., Zürich, Switzerland). The retina VOI was outlined in a way to avoid spillover of radioactivity from adjacent anatomic structures (e.g., major blood vessels). The volume of the retina VOI was in the range of 0.8–0.9 cm^3. None of the dimensions of the retina VOIs were much smaller than 2 times the full width at half-maximum (2 × 4.36 mm) of the employed PET scanner, meaning that partial volume effects causing an underestimation of the true radiotracer concentration in the VOI were negligible. […] Time-activity curves (TACs) were extracted from the coregistered dynamic PET images and normalized to injected radioactivity amount per body weight and expressed in units of standardized uptake value (SUV). The area under the TACs in plasma (AUCplasma), the retina (AUCretina) and the brain (AUCbrain), from 0 to 60 min after radiotracer injection, was determined with Prism 9.5.0 software (GraphPad Software, La Jolla, CA, USA).

[9] = test system: P-gp and BCRP at the human blood–brain barrier (BBB); experiment: [^11C]erlotinib PET, distribution to human whole brain gray matter, baseline vs P-gp and/or BCRP inhibition
Procedure: as §4, §5, §6, §7

[10] = set-up: method as in PMID 25165131; details: cited from earlier work
[11] = test system: P-gp at the BBB; set-up: method as in PMID 25669913; details: human; i.v. tariquidar co-infusion protocol; cited from earlier work
[12] = test system: P-gp at the human BRB; set-up: method as in PMID 27738009; details: i.v. tariquidar co-infusion; cited from earlier work
[13] = co-perfusion with 10 μM inhibitor
[14] = co-perfusion with 20 μM inhibitor
[15] = all combined oral erlotinib dose groups, p ≤ 0.001
[16] = oral erlotinib 300 mg, p ≤ 0.05
[17] = oral erlotinib 650 mg, p ≤ 0.05
[18] = all combined oral erlotinib doses, p ≤ 0.001
[19] = i.v. tariquidar infusion, p ≤ 0.05

C[N+](C)(C)C[C@H](O)CC(=O)[O-] [L-carnitine]
significant changes in retina [^3H]erlotinib transport on co-perfusion [1]: None
significant changes in brain [^3H]erlotinib transport on co-perfusion [2]: None

CC[N+](CC)(CC)CC [TEA, tetraethylammonium]
significant changes in retina [^3H]erlotinib transport on co-perfusion [1]: None
significant changes in brain [^3H]erlotinib transport on co-perfusion [2]: None

COc1cc2c(cc1OC)CN(CCc1ccc(NC(=O)c3cc(OC)c(OC)cc3NC(=O)c3cnc4ccccc4c3)cc1)CC2 [[^11C]tariquidar]
baseline distribution (VT) in the human retina relative to the human brain [3]: 4–5 times

COc1cc2c(cc1OC)CN(CCc1ccc(NC(=O)c3cccc4c(=O)c5cccc(OC)c5[nH]c34)cc1)CC2 [elacridar]
change in Kin of [^3H]erlotinib vs baseline [4, 13]: +277%
increase in [^3H]erlotinib distribution to the retina (Kin) vs baseline ([5]; mouse BRB, co-perfusion with 10 μM inhibitor): +114%

C[N+](C)(C)[C@@H](Cc1c[nH]c(=S)[nH]1)C(=O)[O-] [ergothioneine]
significant changes in retina [^3H]erlotinib transport on co-perfusion [1]: None
significant changes in brain [^3H]erlotinib transport on co-perfusion [2]: None

C#Cc1cccc(Nc2ncnc3cc(OCCOC)c(OCCOC)cc23)c1 [erlotinib]
adverse events [6]: skin rash
change in Kin of [^3H]erlotinib vs baseline [4, 13]: +215%
change in Kin of [^3H]erlotinib vs baseline [4, 14]: +340%
unbound plasma concentration in humans [7]: approximately 0.4 μM
effect of co-infusion of unlabeled erlotinib on Kin of [^3H]erlotinib in the retina ([5]; mouse, two different doses (10 or 20 μM)): did not decrease
change in AUCR of [^11C]erlotinib vs baseline scan [8, 15]: −31 ± 15%
change in VT of [^11C]erlotinib vs baseline scan [8, 15]: −41 ± 16%
change in AUCR of [^11C]erlotinib vs baseline scan [8, 16]: −34 ± 9%
change in VT of [^11C]erlotinib vs baseline scan [8, 16]: −44 ± 12%
change in AUCR of [^11C]erlotinib vs baseline scan [8, 17]: −31 ± 21%
change in VT of [^11C]erlotinib vs baseline scan [8, 17]: −42 ± 19%
change in AUCR of [^11C]erlotinib vs baseline scan [9, 18]: +15 ± 14%
change in VT of [^11C]erlotinib vs baseline scan [9, 18]: +20 ± 16%
change in AUCR of [^11C]erlotinib vs baseline scan ([9]; oral erlotinib 300 mg): no statistically significant changes
change in VT of [^11C]erlotinib vs baseline scan ([9]; oral erlotinib 300 mg): no statistically significant changes
change in AUCR of [^11C]erlotinib vs baseline scan ([9]; oral erlotinib 650 mg): statistically significant increase
change in VT of [^11C]erlotinib vs baseline scan ([9]; oral erlotinib 650 mg): statistically significant increase

C[C@]12CC[C@@H]3c4ccc(OS(=O)(=O)O)cc4CC[C@H]3[C@@H]1CCC2=O [estrone-3-sulfate]
significant changes in retina [^3H]erlotinib transport on co-perfusion [1]: None
significant changes in brain [^3H]erlotinib transport on co-perfusion [2]: None

COc1cc2ncnc(Nc3ccc(F)c(Cl)c3)c2cc1OCCCN1CCOCC1 [gefitinib]
pKa [10]: 5.4

COc1cc2c(cc1OC)CN(CCc1ccc(NC(=O)c3cc(OC)c(OC)cc3NC(=O)c3cnc4ccccc4c3)cc1)CC2 [tariquidar]
change in Kin of [^3H]erlotinib vs baseline [4, 13]: +270%
change in Kin of [^3H]erlotinib vs baseline [4, 14]: +280%
unbound plasma concentration in humans [7]: ~30 nM
increase in brain distribution of (R)-[^11C]verapamil [11]: approximately 4 fold
change in AUCR of [^11C]erlotinib vs baseline scan [8, 19]: −18 ± 8%
change in VT of [^11C]erlotinib vs baseline scan [8, 19]: −25 ± 8%
increase in retinal VT of (R)-[^11C]verapamil [12]: 1.4 fold
change in AUCR of [^11C]erlotinib vs baseline scan ([9]; i.v. tariquidar infusion): no significant changes
change in VT of [^11C]erlotinib vs baseline scan ([9]; i.v. tariquidar infusion): did not result in any significant changes; also recorded: no significant changes

C/C=C/C[C@@H](C)C(=O)[C@H]1C(=O)N[C@@H](C(C)C)C(=O)N(C)CC(=O)N(C)[C@@H](CC(C)C)C(=O)N[C@@H](C(C)C)C(=O)N(C)[C@@H](CC(C)C)C(=O)N[C@@H](C)C(=O)N[C@H](C)C(=O)N(C)[C@@H](CC(C)C)C(=O)N(C)[C@@H](CC(C)C)C(=O)N(C)[C@@H](C(C)C)C(=O)N1C [valspodar]
change in Kin of [^3H]erlotinib vs baseline [4, 13]: +120%

[^3H]erlotinib
Kin at the mouse BRB relative to the BBB ([5]; mouse, in vivo): approximately 2 times
